The text below walks through data of patent US7320975B2, “2-(2-pyridyl)-5-phenyl-6-aminopyrimidine, method and intermediate products for the production and use thereof for combating noxious fungi” (BASF Aktiengesellschaft, priority 2002, dated 2008).

Structures are written as SMILES.

The series can be described thus: Lipophilicity parameter log Pow by RP HPLC run time method (OECD test guidelines). Type of series: physicochemical. How it is done: The determination of the lipophilicity parameter log Pow (Table I) was carried out in accordance with OECD test guidelines using the RP HPLC run time method.
To this end, a log k′/log Pow correlation curve based on ten reference substances was plotted and was validated with the help of the lipophilicity parameters of eight comparison substances established through the extraction method.
A commercially available reversed-phase C18 stationary phase was used as stationary phase. Chromatographic separation was carried out with methanol and a buffer solution as mobile phase at pH 7.4 under isocratic conditions.
The retention times of the standards tR were converted in accordance with equation Φ into the capacity factors k′, in which t0, as reaction time of the solvent unretarded on the reversed-phase C18 stationary phase, represents the dead time of the chromatographic system:
The linear correlation of the log k′ values with the log Pow values of the standards published in the appendix to the guidelines 92/69/EEC yields the correlation curve through linear regression.
The lipophilicity parameters log Pow of the analytes were after calculation of the logarithmic capacity factor log k′ interpolated from the correlation curve of the standards.

Setting [1] is: RP HPLC run time method (OECD test guidelines).
Setting [2] is: RP HPLC run time method, OECD test guidelines.

With `C=C(C)CN(CC)c1nc(-c2ccccn2)nc(Cl)c1-c1c(F)cccc1Cl` [I-2], the “log Pow” value under setting [1] was “log Pow 4.73” and the “log Pow” value under setting [2] is reported as “logPow 4.73”. For `CC(C)Nc1nc(-c2ccccn2)nc(Cl)c1-c1c(F)cccc1F` [I-83], the “log Pow” value by setting is: under setting [1], “logP 4.1”; under setting [2], “logP 4.1”.

For `CC(C)[C@@H](C)Nc1nc(-c2ccccn2)nc(Cl)c1-c1c(F)cccc1F` [I-84], the “log Pow” value is, setting by setting: under setting [1], “logP 5.0”; under setting [2], “logP 5.0”. For the molecule `CCN(CC)c1nc(-c2ccccn2)nc(Cl)c1-c1c(F)cccc1Cl` [I-5], the “log Pow” value under setting [1] is recorded as “log Pow 4.23” and the “log Pow” value under setting [2] is reported as “logPow 4.23”. The matching figures for `C[C@@H](Nc1nc(-c2ccccn2)nc(Cl)c1-c1c(F)cccc1Cl)C(C)(C)C` [I-7]: “log Pow 4.8” and “logPow 4.8”. The matching figures for `C[C@H](Nc1nc(-c2ccccn2)nc(Cl)c1-c1c(F)cc(F)cc1F)C(F)(F)F` [I-12]: “log Pow 4.5” and “logPow 4.5”. `CCN(CC)c1nc(-c2ccccn2)nc(Cl)c1-c1c(F)cc(F)cc1F` [1-9]: under setting [1], the “log Pow” value is “log Pow 4.08”. Same read-out and setting: in the case of `C[C@H](Nc1nc(-c2ccccn2)nc(Cl)c1-c1c(F)cc(F)cc1F)C(C)(C)C` [1-10] it was “log Pow 4.75”. Turning to `CCNc1nc(-c2ccccn2)nc(Cl)c1-c1c(F)cc(OC)cc1F` [I-65], the “log Pow” value by setting is: under setting [1], “logP 4.0”; under setting [2], “logP 4.0”. Take `CCN(CC)c1nc(-c2ccccn2)nc(Cl)c1-c1c(F)cc(F)cc1F` [I-9]: the “log Pow” value under setting [2] is given as “logPow 4.08”. On to `CCNc1nc(-c2ccccn2)nc(Cl)c1-c1ccc(C)cc1C` [I-90], for which the “log Pow” value was “logP 4.6” under setting [1] and “logP 4.6” under setting [2]. In the case of `CCN(CC)c1nc(-c2ccccn2)nc(Cl)c1-c1c(F)cccc1F` [I-81], the “log Pow” value runs as follows: under setting [1], “logP 4.7”; under setting [2], “logP 4.7”. For the molecule `CC(C)[C@H](C)Nc1nc(-c2ccccn2)nc(Cl)c1-c1c(F)cccc1F` [I-82], the “log Pow” value was “logP 5.0” under setting [1] and “logP 5.0” under setting [2]. For `CC(C)Nc1nc(-c2ccccn2)nc(Cl)c1-c1c(F)cccc1Cl` [I-3], the “log Pow” value is listed as “log Pow 3.59” under setting [1] and “logPow 3.59” under setting [2].

As for `Cc1ccc(-c2c(Cl)nc(-c3ccccn3)nc2NC(C)C)c(F)c1` [I-94], the “log Pow” value is “logP 4.8” under setting [1] and “logP 4.8” under setting [2].

On to `CCNc1nc(-c2ccccn2)nc(Cl)c1-c1ccc(F)cc1C` [I-114], for which the “log Pow” value reads like this: under setting [1], “logP 4.1”; under setting [2], “logP 4.1”. As for `Cc1cccc(-c2nc(Cl)c(-c3c(F)cc(F)cc3F)c(N3CCOCC3)n2)n1` [I-24], the “log Pow” value under setting [1] is “log Pow 4.25” and the “log Pow” value under setting [2] is “logPow 4.25”. On to `CCN(CC)c1nc(-c2ccccn2)nc(Cl)c1-c1c(F)cc(OC)cc1F` [I-64], for which the “log Pow” value reads like this: under setting [1], “logP 5.0”; under setting [2], “logP 5.0”. With `CC(C)Nc1nc(-c2ccccn2)nc(Cl)c1-c1c(F)cc(O)cc1F` [I-70], the “log Pow” value is, setting by setting: under setting [1], “log.P 3.0”; under setting [2], “log.P 3.0”. On to `CCN(CC)c1nc(-c2ncccc2C)nc(Cl)c1-c1c(F)cc(F)cc1F` [I-117], for which the “log Pow” value reads like this: under setting [1], “logP 4.6”; under setting [2], “logP 4.6”.
